We go through 18 compounds from US5859067A, “Use of natural products and related synthetic compounds for the treatment of cardiovascular disease” (priority 1993, dated 1999).

The structures appear in SMILES notation. Values after ≈ are worked out from the molar mass of the structure shown. Values joined by “and” are separate entries in the source; they are usually repeats but may differ in a detail not shown here. Equal entries are not always repeated. Where two headings read alike, the source gives them in different places.

For data set [1], the target named is T1, human erythrocyte plasma membrane Ca^2+ -ATPase (Homo sapiens, UniProt P23634).
T1 construct: Calmodulin-depleted erythrocyte membranes were prepared by continuous filtration through a hollow fibre; tissue New South Wales Red Cross Transfusion Service, Sydney; host or cells: human packed red blood cells (calmodulin-depleted erythrocyte membranes)
T1 sequence (P23634 1-1205 isoform P23634-6): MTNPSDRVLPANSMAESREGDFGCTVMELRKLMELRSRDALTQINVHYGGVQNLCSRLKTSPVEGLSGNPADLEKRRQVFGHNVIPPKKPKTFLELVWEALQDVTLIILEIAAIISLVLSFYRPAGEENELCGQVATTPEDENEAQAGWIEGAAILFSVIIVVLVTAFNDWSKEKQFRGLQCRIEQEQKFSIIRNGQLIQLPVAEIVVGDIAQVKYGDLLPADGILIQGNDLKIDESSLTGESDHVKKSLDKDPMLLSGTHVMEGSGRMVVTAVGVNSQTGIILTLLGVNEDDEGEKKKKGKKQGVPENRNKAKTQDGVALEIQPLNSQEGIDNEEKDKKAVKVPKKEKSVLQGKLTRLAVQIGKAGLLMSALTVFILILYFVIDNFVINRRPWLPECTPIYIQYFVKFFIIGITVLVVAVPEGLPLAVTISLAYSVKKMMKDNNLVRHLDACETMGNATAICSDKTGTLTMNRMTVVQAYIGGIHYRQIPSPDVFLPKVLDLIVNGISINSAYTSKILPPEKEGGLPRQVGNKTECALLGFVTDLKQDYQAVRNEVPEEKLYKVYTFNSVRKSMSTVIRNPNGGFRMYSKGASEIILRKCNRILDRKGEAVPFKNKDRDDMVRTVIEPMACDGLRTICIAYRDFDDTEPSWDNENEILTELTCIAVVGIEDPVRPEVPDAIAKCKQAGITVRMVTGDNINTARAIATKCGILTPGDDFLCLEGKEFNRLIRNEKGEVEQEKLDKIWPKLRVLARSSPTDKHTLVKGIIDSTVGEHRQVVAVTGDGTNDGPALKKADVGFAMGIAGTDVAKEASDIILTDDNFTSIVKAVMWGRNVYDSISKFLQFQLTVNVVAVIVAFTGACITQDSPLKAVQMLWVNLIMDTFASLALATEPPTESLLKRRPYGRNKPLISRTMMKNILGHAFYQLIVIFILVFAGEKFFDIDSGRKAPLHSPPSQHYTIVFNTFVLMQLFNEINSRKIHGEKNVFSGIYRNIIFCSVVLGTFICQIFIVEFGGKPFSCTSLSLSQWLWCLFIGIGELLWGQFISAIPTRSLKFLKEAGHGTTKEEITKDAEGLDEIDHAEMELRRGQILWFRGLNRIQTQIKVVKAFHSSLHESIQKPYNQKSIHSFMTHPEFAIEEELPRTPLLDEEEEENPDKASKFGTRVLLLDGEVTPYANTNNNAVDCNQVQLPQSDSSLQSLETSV
T1 sequence (P35613 140-385 partner limits assumed): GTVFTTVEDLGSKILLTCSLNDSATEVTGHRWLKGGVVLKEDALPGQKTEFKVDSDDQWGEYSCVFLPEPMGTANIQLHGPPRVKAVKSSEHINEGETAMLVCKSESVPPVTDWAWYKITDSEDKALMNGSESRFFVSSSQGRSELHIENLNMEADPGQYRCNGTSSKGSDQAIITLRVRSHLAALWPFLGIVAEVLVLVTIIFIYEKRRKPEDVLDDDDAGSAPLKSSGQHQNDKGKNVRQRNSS
In words: Ca^2+ -ATPase assay (microplate method), absence (-CaM) and presence (+CaM) of calmodulin (Table 1A). The format is biochemical. On the procedure: Natural and synthetic compounds of formula (I) were tested for their ability to influence human erythrocyte plasma membrane Ca^2+ -ATPase. The enzyme Ca^2+ -ATPase in the human red blood cell plasma membrane has previously been studied and its stimulation by calmodulin and activation by lipids and proteolysis and its primary structure have been published (see Carafoli E (1991) Calcium pump of the plasma membrane, Physiological Reviews 71, 129-153.
(§1) Calmodulin-depleted erythrocyte membranes were prepared by continuous filtration through a hollow fibre, Ashahi plasma separator as described by W S Price, B D Roufogalis, P W Kuchel (1989), A simple and inexpensive method for preparing erythrocyte membranes by filtration through a hollow-filter system, Anal. Biochem., 179, 190-193. Packed cells were obtained from the New South Wales Red Cross Transfusion Service, Sydney. The whole preparation was carried out at 4° C. 1 unit of packed red cells was washed 3 times with isotonic buffer, containing 130 mM KCl, 20 mM Tris-HCl (pH 7.4), and the cells were collected by centrifugation at 4,000 RPM. The cells were haemolysed by the buffer containing 1 mM EDTA, 10 mM Tris-Hcl (pH 7.4), 0.5 mM PMSF (phenylmethyl sulfonyl fluoride). The haemolyzate mixture was passed through the hollow fibre system until the membrane appeared white, and then washed with 10 mM potassium Hepes (pH 7.4). The membranes were collected by centrifugation at 10,000 RPM for 20 min, the membranes were resuspended in storage buffer containing 130 mM KCl, 2 mM dithiothreitol, 0.5 mM MgCl2, 20 mM potassium-Hepes (pH 7.5). The membranes with protein concentration of 1.5-5.4 mg/ml were stored at -80° C. until required.
Erythrocyte membranes were incubated at 37° C. for one hour in a total volume of 60 μl of 65 mM KCl, 50 mM HEPES (pH=7.4), 5 mM MgCl2, 50 μM CaCl2, 0.1 mM EGTA and in absence and presence of calmodulin (0.3 μM). Test compounds were dissolved in dimethyl sulfoxide DMSO and 2 μl was added to the assay mixture prior the addition of ATP. The final concentration of DMSO in the assay mixture was 3%. The reaction was started by adding 2 mM ATP (pH=7.4). After 1 hour of incubation, colouring agent (180 μl) was added and incubated at 37° C. for 1/2 hrs. The phosphate liberated to the assay medium was determined spectrometrically using a microplate reader at 750 nm. The activity of the Mg^2+ -ATPase (assayed in the absence of added CaCl2) was subtracted from the total activity assayed in the presence of Ca^2+.

Data set [2] has as its system brine shrimp (Artemia salina Leach). Kind of data set: Brine shrimp toxicity bioassay. The format is in vivo. The following applies: for LC50: Artemia salina, read-out: LC50 brine shrimp. The method, then: There are many applications of the assay including analysis of toxic substances, anaesthetics, morphine-like substances and cocarcinogenicity of phorbol esters.
6 (K Hostettman, ed.), Academ Press, London, 1-32. DMSO solutions of the substances to be tested were added directly to the vials containing the brine shrimp. As the concentration of DMSO that we wished to use was higher than the recommended 1% v/v testing of the toxicity of the DMSO was therefore necessary.
Brine shrimp toxicity was assayed, except for some minor modifications, according to the method of McLaughlin et al as reported in Brine Shrimp: A convenient general bioassay for active plant constituents, B N Meyer, N R Ferrigni, J E Putman, L B Jacobsen, D E Nhols and J L McLaughlin. […] J L McLaughlin. […] 6 (K Hostettman, ed.), Academ Press, London, 1-32. Ten shrimp were added transferred to each of the vials and the volume adjusted to 4.9 mL. Each dose was performed in triplicate, including the control. In quick succession, the appropriate volume of additional DMSO for each dose, required to achieve a final concentration of 2%, was added before the appropriate volume of test solution. The vials were gently mixed and the time noted. After 24 hours, the number of survivors were counted and % mortality was determined.
The LC50 values were expressed in both μM and μg/mL.

Data set [3] addresses T1, human erythrocyte plasma membrane Ca^2+ -ATPase. Kind of data set: Ca^2+ -ATPase assay (erythrocyte membranes; Table 1). The following applies: for inhibition at 100 µM / inhibition at 25 µM: read-out: INHIBITION OF Ca^2+ -ATPase PERCENT (%); for Ca^2+ -ATPase inhibitory activity relative to striatol: compared with natural product striatol. The format is biochemical. On the procedure:
Natural and synthetic compounds of formula (I) were tested for their ability to influence human erythrocyte plasma membrane Ca^2+ -ATPase.
as §1, with “Packed” for “Calmodulin-depleted erythrocyte membranes were prepared by continuous filtration through a hollow fibre, Ashahi plasma separator as described by W S Price, B D Roufogalis, P W Kuchel (1989), A simple and inexpensive method for preparing erythrocyte membranes by filtration through a hollow-filter system, Anal. Biochem., 179, 190-193. Packed”
Erythrocyte membranes (0.071-0.098 mg/ml) were incubated at 37° C. for one hour in a total volume of 0.4 ml of 65 mM KCl, 20 mM potassium-Hepes, 5 mM MgCl2, 50 μM CaCl2, 0.1 μm calmodulin, 0.1 mM EGTA. The reaction was started by adding 2 mM ATP(pH 7.4). […] The activity of the Mg^2+ -ATPase (assayed in the absence of added CaCl2) was subtracted from the total activity assayed in the presence of Ca^2+. […] A concentrated solution of the test substances was added to the reaction medium before adding ATP.

Data set [4] deals with brine shrimp (Artemia salina Leach). The conditions noted are these: determined by Meyer et al.; cited from earlier work.
The mark [5] stands for this setting: absence of calmodulin, read-out: IC50 (-CaM).
The mark [6] stands for this setting: presence of calmodulin (0.3 μM), read-out: IC50 (+CaM).
Where [7] appears, read: read-out: INHIBITION OF Ca^2+ -ATPase IC50.

For `CCCCCCCCCCCCc1ccc(O)cc1O` [4-dodecylresorcinol, reference compound], the IC50 (commonly the concentration that inhibits the measured activity by half) was determined as 80 µM in data set [1] (setting [5]), 100 µM in data set [1] (setting [6]) and 69 µM in data set [3] (setting [7]). Further, the LC50 (in general, the concentration that kills 50% of the test population) in data set [2] (24 hours) is 8.8 µM and 2.4 µg/mL. For the same compound, in data set [3], the “Ca^2+ -ATPase inhibitory activity (in words)” value is listed as “most potent among the alkylresorcinols tested”. In addition, the inhibition (in general, how much of the control response was suppressed) at 100 µM in data set [3] (at 100 μM) turned out to be 68%.

With `Oc1ccc(CCCCCCCCCCCc2ccc(O)cc2O)c(O)c1` [1,11-bis(2,4-dihydroxyphenyl)undecane], the figures for the IC50 in data set [1] (setting [5]) and in data set [1] (setting [6]) were 25 µM and 21.7 µM, respectively. In addition, the 50% lethal concentration (LC50) in data set [2] (24 hours) was > 25 µM and > 9.3 µg/mL.

As for `CCCCCCCCCC(c1ccccc1O)c1ccccc1O` [1,1-bis(2-hydroxyphenyl)decane], the 50% inhibitory concentration (IC50) in data set [1] (setting [5]) stood at 74 µM; in data set [1] (setting [6]), 68 µM. The LC50 in data set [2] (24 hours) is 14 µM and 4.6 µg/mL.

For `COc1cc([C@@H]2c3cc4c(cc3[C@H](O)[C@H]3COC(=O)[C@H]23)OCO4)cc(OC)c1OC` [podophyllotoxin, reference compound], in data set [4], the LC50 was 5.8 µM and the “LC50 brine shrimp (Meyer et al.)” value is 2.4 µg/mL (≈ 5.79 µM). The median lethal concentration (LC50) in data set [2] (24 h) was 3.8 µM and 1.6 µg/mL.

`Oc1ccccc1CCCCCCCCCCc1ccccc1O` [1,10-bis(2-hydroxyphenyl)decane]: in data set [1], the “Ca^2+ -ATPase inhibitory activity (in words)” value is recorded as “most potent inhibitors of plasma Ca^2+ -ATPase among the synthesised substances”. Further, in data set [1] (setting [5]), the IC50 was 8.4 µM. For the same compound, the IC50 in data set [1] (setting [6]) was 9 µM. Moreover, in data set [2] (24 hours), the “toxicity to brine shrimp (in words)” value is “moderately toxic”; the LC50 was 1.9 µM and 0.62 µg/mL. Besides, in data set [3], the “Ca^2+ -ATPase inhibitory activity (in words)” value is “strongest Ca^2+ -ATPase inhibition among the synthesised phenolic compounds”, the inhibition at 25 µM turned out to be 100% and the “Ca^2+ -ATPase inhibitory activity relative to striatol” value is recorded as “two-fold higher”. In data set [3] (setting [7]), the IC50 turned out to be 7.6 µM.

`Oc1ccc(CCCCCCCCCCc2ccc(O)cc2O)c(O)c1` [1,10-bis(2,4-dihydroxyphenyl)decane]: the “Ca^2+ -ATPase inhibitory activity (in words)” value in data set [1] is “most potent inhibitors of plasma Ca^2+ -ATPase among the synthesised substances”. Besides, the IC50 in data set [1] (setting [5]) came to 10 µM; in data set [1] (setting [6]), 16 µM. For the same compound, the “toxicity to brine shrimp (in words)” value in data set [2] (24 hours) is reported as “relatively low toxicity”. Further, in data set [2] (24 hours), the 50% lethal concentration (LC50) is 37 µM and 13 µg/mL.

In the case of `Oc1ccccc1CCCCCCCCc1ccccc1O` [1,8-bis(2-hydroxyphenyl)octane], the IC50 in data set [1] (setting [5]) and in data set [1] (setting [6]) was 24 µM each time. The median lethal concentration (LC50) in data set [2] (24 hours) is 3 µM and 0.89 µg/mL.

Regarding `CCCCCCCCCc1ccccc1O` [2-nonylphenol], the IC50 amounted to 40 µM in data set [1] (IC50 (+CaM), presence of calmodulin (0.3 μM)); 36 µM in data set [1] (IC50 (-CaM), absence of calmodulin); 30 µM in data set [3]. Also, the 50% lethal concentration (LC50) in data set [2] (24 h) is 480 nM and 0.11 µg/mL. For the same compound, the inhibition at 100 µM in data set [3] stood at 95%.

`Cc1ccc(CCCCCCCCCCc2ccc(C)cc2O)c(O)c1` [1,10-bis(2-hydroxy-4-methylphenyl)decane]: the IC50 in data set [1] (setting [5]) and in data set [1] (setting [6]) was 29 µM in each case. In data set [2] (24 hours), the “toxicity to brine shrimp (in words)” value is reported as “reduced toxicity”. Moreover, the LC50 in data set [2] (24 hours) is 14 µM and 5 µg/mL.

With `Cc1ccc(CCCCCCCCCCc2ccc(C)c(O)c2)cc1O` [1,10-bis(3-hydroxy-4-methylphenyl)decane], the half-maximal inhibitory concentration (IC50) in data set [1] (setting [5]) amounted to 51 µM; in data set [1] (setting [6]), 48 µM. Besides, the LC50 in data set [2] (24 hours) is 11 µM and 3.9 µg/mL.

Consider `CCCCCCCCCc1ccc(O)cc1O` [4-nonylresorcinol], for which, in data set [1] (setting [5]), the IC50 was 125 µM. Also, the LC50 in data set [2] (24 hours) was 10 µM and 2.4 µg/mL.

Take `Oc1ccccc1CCCCCCCCCCCCc1ccccc1O` [1,12-bis(2-hydroxyphenyl)dodecane]: the IC50 in data set [1] (setting [5]) is 12.5 µM. Moreover, the concentration for half-maximal inhibition (IC50) in data set [1] (setting [6]) came out at 13 µM. Besides, the LC50 in data set [2] (24 hours) is 2.6 µM and 0.94 µg/mL. Besides, in data set [3], the “Ca^2+ -ATPase inhibitory activity (in words)” value was “strongest Ca^2+ -ATPase inhibition among the synthesised phenolic compounds”, the inhibition at 25 µM was found to be 100% and the “Ca^2+ -ATPase inhibitory activity relative to striatol” value is “two-fold higher”. Besides, the IC50 in data set [3] (setting [7]) was 8.3 µM.

For the compound `C=C(C)C(CC=C(C)C)Cc1c(O)cc(O)c2c1OC(c1c(O)cccc1O)CC2=O` (stereo not shown) [5,7,2',6'-tetrahydroxy-8-lavandulylflavanone], in data set [1] (setting [5]), the concentration for half-maximal inhibition (IC50) worked out at 20 µM. For the same compound, in data set [2] (24 hours), the LC50 is > 100 µM and > 42 µg/mL.

On to `Oc1cccc(CCCCCCCCCCc2cccc(O)c2)c1` [1,10-bis(3-hydroxyphenyl)decane], for which the values for the half-inhibitory concentration (IC50) in data set [1] (setting [5]) and in data set [1] (setting [6]) were 30 µM and 32 µM, respectively. In data set [2] (24 hours), the LC50 was 3 µM and 0.98 µg/mL.

In the case of `Cc1cccc(CCCCCCCCCCc2cccc(C)c2O)c1O` [1,10-bis(2-hydroxy-3-methylphenyl)decane], the results for the IC50 in data set [1] (setting [5]) and in data set [1] (setting [6]) were 50 µM and 55 µM, respectively. Further, in data set [2] (24 hours), the LC50 was 5.8 µM and 2.1 µg/mL.

For `Oc1ccc(CCCCCCCCc2ccc(O)cc2O)c(O)c1` [1,8-bis(2,4-dihydroxyphenyl)octane], the IC50 in data set [1] (setting [5]) came out at 50 µM; in data set [1] (setting [6]), 48 µM. Further, the LC50 in data set [2] (24 hours) was 74 µM and 24 µg/mL.

Take `Cc1cc(CCCCCCCCCCc2ccc(O)c(C)c2)ccc1O` [1,10-bis(4-hydroxy-3-methylphenyl)decane]: the half-inhibitory concentration (IC50) in data set [1] (setting [5]) is 100 µM; in data set [1] (setting [6]), 94 µM. Besides, in data set [2] (24 hours), the LC50 was 4.2 µM and 1.5 µg/mL.

For `Oc1ccc(CCCCCCCCCCCCc2ccc(O)cc2O)c(O)c1` [1,12-bis(2,4-dihydroxyphenyl)dodecane], the IC50 in data set [1] (setting [5]) came out at 12 µM; in data set [1] (setting [6]), 20 µM. In addition, the LC50 in data set [2] (24 hours) is 14 µM and 5.4 µg/mL.
